These results are taken from ChEMBL document CHEMBL3621145, “Synthesis of imidazothiadiazolebenzimidazole conjugates as mitochondrial apoptosis inducers” (Medchemcomm, 2014).

Assay [1] concerns A549. Put plainly: Anticancer activity against human A549 cells by MTT assay. It counts as functional, cell-based.
In assay [2] the test system is ME-180. The assay can be described thus: Anticancer activity against human ME180 cells by MTT assay. It counts as functional, cell-based. (In general: Tetrazolium dyes change colour on reduction, which living cells bring about.)
For assay [3], the system named is A-375. The assay can be described thus: Anticancer activity against human A375 cells by MTT assay. It counts as functional, cell-based.
Assay [4] deals with DU-145. Put plainly: Anticancer activity against human DU145 cells by MTT assay. It counts as functional, cell-based.
The test system of assay [5] is ME-180. Put plainly: Cell cycle arrest in human ME180 cells assessed as accumulation at G2/M phase at 0.5 uM after 48 hrs by FACS analysis (reference value: 13.2%). The format is functional. A general note: Flow cytometry measures light scatter and fluorescence of single cells or particles in a stream.
Assay [6] has as its system ME-180. Put plainly: Induction of apoptosis in human ME180 cells assessed as mitochondrial membrane depolarization at 1 uM for 24 hrs by using JC-1 dye. It counts as functional, cell-based.
In assay [7] the test system is ME-180. Put plainly: Cell cycle arrest in human ME180 cells assessed as accumulation at S phase at 1 uM after 48 hrs by FACS analysis (reference value: 19.3%). The format is functional.
Assay [8] relates to ME-180. Put plainly: Induction of apoptosis in human ME180 cells assessed as DNA fragmentation at 1 uM after 48 hrs. The format is functional, cell-based.
Assay [9] relates to ME-180. Put plainly: Cell cycle arrest in human ME180 cells assessed as accumulation at SubG1 phase at 0.5 uM after 48 hrs by FACS analysis (reference value: 7.0%). It counts as functional.
Assay [10] concerns ME-180. Put plainly: Cell cycle arrest in human ME180 cells assessed as accumulation at G1 phase at 1 uM after 48 hrs by FACS analysis (reference value: 59.9%). The format is functional.
Assay [11] relates to ME-180. Put plainly: Cell cycle arrest in human ME180 cells assessed as accumulation at G1 phase at 0.5 uM after 48 hrs by FACS analysis (reference value: 59.9%). It counts as functional.
Assay [12] relates to ME-180. The assay can be described thus: Cell cycle arrest in human ME180 cells assessed as accumulation at SubG1 phase at 1 uM after 48 hrs by FACS analysis (reference value: 7.0%). The format is functional.
The subject of assay [13] is ME-180. Put plainly: Cell cycle arrest in human ME180 cells assessed as accumulation at S phase at 0.5 uM after 48 hrs by FACS analysis (reference value: 19.3%). The format is functional.
Assay [14] has as its system ME-180. Put plainly: Induction of apoptosis in human ME180 cells assessed as early apoptotic cells at 1 uM for 24 hrs by annexin V/PI staining based flow cytometry (reference value: 0.2%). It counts as functional.
The subject of assay [15] is ME-180. Put plainly: Induction of apoptosis in human ME180 cells assessed as late apoptotic cells at 1 uM for 24 hrs by annexin V/PI staining based flow cytometry (reference value: 5%). It counts as functional.
In assay [16] the test system is ME-180. Put plainly: Induction of apoptosis in human ME180 cells assessed as nuclear fragmentation at 1 uM for 24 hrs by Hoechst staining analysis. The format is functional, cell-based.
The subject of assay [17] is ME-180. The assay can be described thus: Induction of apoptosis in human ME180 cells assessed as necrotic cells at 1 uM for 24 hrs by annexin V/PI staining based flow cytometry (reference value: 11.7%). It counts as functional.
In assay [18] the test system is ME-180. Put plainly: Induction of apoptosis in human ME180 cells assessed as presence of apoptotic bodies at 1 uM for 24 hrs by Hoechst staining analysis. The format is functional, cell-based.
Assay [19] relates to ME-180. Put plainly: Induction to apoptosis in human ME180 cells assessed as increase in caspase-3 activity at 1 uM for 48 hrs relative to control. The format is functional.
Assay [20] relates to ME-180. The assay can be described thus: Cell cycle arrest in human ME180 cells assessed as accumulation at G2/M phase at 1 uM after 48 hrs by FACS analysis (reference value: 13.2%). It counts as functional.
Assay [21] has as its system ME-180. The assay can be described thus: Induction of apoptosis in human ME180 cells assessed as cytoplasmic condensation at 1 uM for 24 hrs by Hoechst staining analysis. The format is functional, cell-based.
The subject of assay [22] is ME-180. Put plainly: Induction of apoptosis in human ME180 cells assessed as viable cells at 1 uM for 24 hrs by annexin V/PI staining based flow cytometry (reference value: 83.1%). The settings on record: ME-180, 24 h, read-out: Activity. The format is functional.

By IC50 is commonly meant the concentration at which inhibition is half-maximal. Lower therefore signals inhibition by little substance.

Calls of active or inactive are those of the source. No cut-off for these calls is given here.

As for `Cc1nn2c(-c3nc4cc(F)ccc4[nH]3)c(-c3ccccc3)nc2s1`, the IC50 was > 30 µM in assay [1], 15.7 µM in assay [2], 18.1 µM in [3] and 16.9 µM in assay [4].
As for `Cc1ccc(-c2nc3sc(C)nn3c2-c2nc3cc(Cl)c(F)cc3[nH]2)cc1`, the IC50 in assay [1] was 10.3 µM; in [2], 0.7 µM; in [3], 1.04 µM; in [4], 11.8 µM. The Activity is recorded as 6.7% in [5]; 10.1% in [7]; 14.1% in assay [9]; 75.7% in [10]; 66.6% in [11]; 11.6% in assay [12]. Moreover, the Activity in assay [13] is 12.3%; in assay [14] it was 0.8%; in assay [15] it was 16.5%; in assay [17] it was 9.6%; in assay [20], 2.3%. The result in assay [6], in assay [8], in assay [16], in assay [18] and in assay [21] was Active. In addition, the “fold change (FC)” value in assay [19] is on record as 3. Moreover, the viability at 1 µM in assay [22] turned out to be 73.1%.
Consider `Cc1nn2c(-c3nc4cc(C(F)(F)F)ccc4[nH]3)c(-c3ccc(F)cc3)nc2s1`, for which the half-maximal inhibitory concentration (IC50) was 12.7 µM in [1], 5.8 µM in assay [2], 7.3 µM in assay [3] and 15.8 µM in [4].
For `Cc1ccc2[nH]c(-c3c(-c4ccc(F)cc4)nc4sc(C)nn34)nc2c1` the same measures were 11.7 µM, 6.6 µM, 7.7 µM and 19.9 µM.
Regarding `Cc1nn2c(-c3nc4cc(Cl)c(F)cc4[nH]3)c(-c3ccc(F)cc3)nc2s1`, the IC50 was > 30 µM in [1], 13.9 µM in [2], 17.7 µM in assay [3] and > 30 µM in [4].
`Cc1nn2c(-c3nc4cc(O)ccc4[nH]3)c(-c3ccccc3)nc2s1`: the IC50 in [1] came out at 19.4 µM; in [2], 16.4 µM; in [3], 19.1 µM; in assay [4], 20.6 µM.
On to `COc1ccc(-c2nc3sc(C)nn3c2-c2nc3c(C)c(C)ccc3[nH]2)cc1`, for which the half-maximal inhibitory concentration (IC50) amounted to 16.2 µM in assay [1], 3.7 µM in [2], 5.8 µM in assay [3] and 14.2 µM in assay [4].
Turning to `Cc1ccc2[nH]c(-c3c(-c4ccccc4)nc4sc(C)nn34)nc2c1`, the IC50 in [1] is 12.5 µM; in [2] it was 15.8 µM; in assay [3], 20.4 µM; in assay [4] it was 14.4 µM.
`Cc1nn2c(-c3nc4cc(Cl)ccc4[nH]3)c(-c3ccc(F)cc3)nc2s1`: the IC50 in assay [1] came to 10.2 µM; in [2], 1.9 µM; in assay [3], 4.8 µM; in [4], 14.4 µM.
For `COc1ccc(-c2nc3sc(C)nn3c2-c2nc3cc(Cl)ccc3[nH]2)cc1` the same measures were 7.9 µM, 2.6 µM, 4.3 µM and 15.8 µM.
Turning to `Cc1nn2c(-c3nc4ccccc4[nH]3)c(-c3ccccc3)nc2s1`, the IC50 in [1] is 16.6 µM; in [2] it was 16.9 µM; in assay [3] it was 19.9 µM; in assay [4], > 30 µM.
For `Cc1ccc(-c2nc3sc(C)nn3c2-c2nc3cc(Cl)ccc3[nH]2)cc1` the same measures were 4.4 µM, 3.6 µM, 5.01 µM and 7.3 µM.
Take `Cc1nn2c(-c3nc4cc(Cl)c(Cl)cc4[nH]3)c(-c3ccc(F)cc3)nc2s1`: the IC50 is > 30 µM in assay [1], 10 µM in assay [2], 14.2 µM in [3] and > 30 µM in [4].
`Cc1nn2c(-c3nc4cc(Cl)c(F)cc4[nH]3)c(-c3ccccc3)nc2s1`: the IC50 is 16.4 µM in [1], 16.9 µM in [2], 20.8 µM in [3] and > 30 µM in assay [4].
For `Cc1nn2c(-c3nc4ccccc4[nH]3)c(-c3ccc(F)cc3)nc2s1` the same measures were > 30 µM, 18.1 µM, 22.2 µM and > 30 µM.
With `Cc1nn2c(-c3nc4c(C)c(C)ccc4[nH]3)c(-c3ccccc3)nc2s1`, the IC50 in assay [1] is 18.4 µM; in [2], 15.8 µM; in [3] it was 22.9 µM; in assay [4] it was > 30 µM.
Consider `Cc1ccc(-c2nc3sc(C)nn3c2-c2nc3c(C)c(C)ccc3[nH]2)cc1`, for which the IC50 came out at 10.3 µM in assay [1], 9.7 µM in assay [2], 11.4 µM in assay [3] and 12.5 µM in assay [4].
As to `Cc1nn2c(-c3nc4cc(C)c(C)cc4[nH]3)c(-c3ccccc3)nc2s1`, the IC50 in [1] is > 30 µM; in [2] it was 19.9 µM; in assay [3], 22.5 µM; in assay [4], 19.8 µM.
For `COc1ccc(-c2nc3sc(C)nn3c2-c2nc3cc(C)c(C)cc3[nH]2)cc1` the same measures were 16.5 µM, 12.3 µM, 12.5 µM and 23.3 µM.
For `COC(=O)Nc1nc2cc(C(=O)c3cccs3)ccc2[nH]1` [NOCODAZOLE] the same measures were 2.5 µM, 1.7 µM, 0.2 µM and 2.1 µM.
Take `Cc1nn2c(-c3nc4cc(Cl)c(Cl)cc4[nH]3)c(-c3ccccc3)nc2s1`: the IC50 in assay [1] was 13.6 µM; in [2], 0.5 µM; in [3], 2.8 µM; in assay [4], 19.1 µM. In addition, the Activity worked out at 10.4% in assay [5]; 9.3% in [7]; 5.4% in assay [9]; 72.4% in assay [10]; 68.1% in [11]; 16.3% in assay [12]. For the same molecule, the Activity is 15.7% in assay [13]; 1% in [14]; 22.6% in assay [15]; 17.7% in [17]; 1.6% in [20]. In addition, the outcome in assay [6], in [8], in [16], in [18] and in [21] was Active. Besides, the “fold change (FC)” value in [19] turned out to be 3. For the same molecule, the viability at 1 µM in [22] is 58.7%.
In the case of `Cc1nn2c(-c3nc4cc(C(F)(F)F)ccc4[nH]3)c(-c3ccccc3)nc2s1`, the IC50 in [1] came to 13.6 µM; in assay [2], 3.9 µM; in [3], 5.2 µM; in [4] it was 19.6 µM.
Regarding `Cc1nn2c(-c3nc4cc(Cl)ccc4[nH]3)c(-c3ccccc3)nc2s1`, the IC50 in assay [1] is 16.9 µM; in [2], 5.4 µM; in [3] it was 7.7 µM; in assay [4], 25.1 µM.
Consider `COc1ccc(-c2nc3sc(C)nn3c2-c2nc3cc(C)ccc3[nH]2)cc1`, for which the IC50 in assay [1] came to 18.4 µM; in assay [2] it was 8.7 µM; in [3], 10.9 µM; in [4], 25.1 µM.
For `COc1ccc(-c2nc3sc(C)nn3c2-c2nc3cc(Cl)c(F)cc3[nH]2)cc1` the same measures were 17.9 µM, 4.6 µM, 6.8 µM and > 30 µM.
In the case of `Cc1ccc(-c2nc3sc(C)nn3c2-c2nc3cc(C)ccc3[nH]2)cc1`, the IC50 in [1] came out at 9.8 µM; in assay [2], 4.5 µM; in assay [3], 6.1 µM; in assay [4] it was 10.7 µM.
For `Cc1nn2c(-c3nc4cc(C)c(C)cc4[nH]3)c(-c3ccc(F)cc3)nc2s1` the same measures were > 30 µM, 6.1 µM, 7.6 µM and > 30 µM.
